These results are taken from patent publication US7700609B2, “Compositions useful as inhibitors of protein kinases” (Vertex Pharmaceuticals Incorporated, priority 2003, dated 2010).

For assay [1], the target named is T1, Itk (Homo sapiens, UniProt Q08881).
T1 sequence (Q08881 1-620): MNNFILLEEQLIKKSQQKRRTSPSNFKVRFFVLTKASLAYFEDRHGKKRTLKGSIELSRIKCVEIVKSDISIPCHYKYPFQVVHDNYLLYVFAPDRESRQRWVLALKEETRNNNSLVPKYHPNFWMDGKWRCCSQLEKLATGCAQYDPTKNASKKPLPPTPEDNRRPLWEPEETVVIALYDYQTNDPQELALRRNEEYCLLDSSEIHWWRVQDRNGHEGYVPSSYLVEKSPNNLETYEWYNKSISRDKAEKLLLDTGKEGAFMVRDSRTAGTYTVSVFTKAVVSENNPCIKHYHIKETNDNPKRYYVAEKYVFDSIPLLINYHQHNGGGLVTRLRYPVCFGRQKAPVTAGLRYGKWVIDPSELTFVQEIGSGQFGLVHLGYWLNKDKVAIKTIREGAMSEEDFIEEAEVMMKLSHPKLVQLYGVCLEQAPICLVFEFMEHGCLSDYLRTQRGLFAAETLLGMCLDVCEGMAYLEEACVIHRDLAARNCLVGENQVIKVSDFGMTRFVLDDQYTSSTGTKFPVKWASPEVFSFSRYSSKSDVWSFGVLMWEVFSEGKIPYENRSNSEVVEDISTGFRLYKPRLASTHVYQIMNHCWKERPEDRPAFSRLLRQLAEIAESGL
Briefly: Itk inhibition assay: radioactivity-based (Method A). Format: biochemical. The note with it: 15 μM ATP, read-out: IC50 in the radioactive incorporation assay (Method A). The protocol:
(§1) The compounds of the present invention were evaluated as inhibitors of human Itk kinase using either a radioactivity-based, spectrophotometric or alphascreen assay.
Assays were carried out in a mixture of 100 mM HEPES (pH 7.5), 10 mM MgCl2, 25 mM NaCl, 0.01% BSA and 1 mM DTT. Final substrate concentrations were 15 μM [γ-^33P]ATP (400 μCi ^33P ATP/μmol ATP, Amersham Pharmacia Biotech/Sigma Chemicals) and 2 μM peptide (SAM68 protein Δ332-443). Assays were carried out at 25° C. in the presence of 30 nM Itk. An assay stock buffer solution was prepared containing all of the reagents listed above, with the exception of ATP and the test compound of interest. 50 μL of the stock solution was placed in a 96 well plate followed by addition of 1.5 μL of DMSO stock containing serial dilutions of the test compound (typically starting from a final concentration of 15 μM with 2-fold serial dilutions) in duplicate (final DMSO concentration 1.5%). The plate was pre-incubated for 10 minutes at 25° C. and the reaction initiated by addition of 50 μL [γ-^33P]ATP (final concentration 15 μM).
The reaction was stopped after 10 minutes by the addition of 50 μL of a TCA/ATP mixture (20% TCA, 0.4 mM ATP). A Unifilter GF/C 96 well plate (Perkin Elmer Life Sciences, Cat no. 6005174) was pretreated with 50 μL Milli Q water prior to the addition of the entire reaction mixture (150 μL). The plate was washed with 200 μL Milli Q water followed by 200 μL of a TCA/ATP mixture (5% TCA, 1 mM ATP). This wash cycle was repeated a further 2 times. After drying, 30 μL Optiphase ‘SuperMix’ liquid scintillation cocktail (Perkin Elmer) was added to the well prior to scintillation counting (1450 Microbeta Liquid Scintillation Counter, Wallac).
IC50 data were calculated from non-linear regression analysis of the initial rate data using the Prism software package (GraphPad Prism version 3.0cx for Macintosh, GraphPad Software, San Diego Calif., USA).

The target in assay [2] is T1, Itk. Briefly: Itk inhibition assay: Alphascreen (Method B). To be noted: 100 μM ATP. Format: biochemical. The protocol:
as §1
Assays were carried out in a mixture of 20 mM MOPS (pH 7.0), 10 mM MgCl2, 0.1% BSA and 1 mM DTT. Final substrate concentrations in the assay were 100 μM ATP (Sigma Chemicals) and 2 μM peptide (Biotinylated SAM68 Δ332-443). Assays were carried out at 25° C. and in the presence of 10 nM Itk. An assay stock buffer solution was prepared containing all of the reagents listed above, with the exception of ATP and the test compound of interest. 25 μL of the stock solution was placed in each well of a 96 well plate followed by 1 μL of DMSO containing serial dilutions of the test compound (typically starting from a final concentration of 15 μM) in duplicate (final DMSO concentration 2%). The plate was preincubated for 10 minutes at 25° C. and the reaction initiated by addition of 25 μL ATP (final concentration 100 μM). Background counts were determined by the addition of 5 μL 500 mM EDTA to control wells containing assay stock buffer and DMSO prior to initiation with ATP. The reaction was stopped after 30 minutes by diluting the reaction 225-fold into MOPS buffer (20 mM MOPS (pH 7.0), 1 mM DTT, 10 mM MgCl2, 0.1% BSA) containing 50 mM EDTA to bring the final concentration of peptide to 9 nM.
AlphaScreen™ reagents were prepared according to the manufacturers instructions (AlphaScreen™ phosphotyrosine (P-Tyr-100) assay kit, PerkinElmer catalogue number 6760620C). Under subdued lighting, 20 μL of AlphaScreen™ reagents were placed in each well of a white half area 96 well plate (Corning Inc.—COSTAR 3693) with 30 μL of the stopped, diluted kinase reactions. Plates were incubated in the dark for 60 minutes prior to reading on a Fusion Alpha plate reader (PerkinElmer).
After removing mean background values for all of the data points, Ki(app) data were calculated from non-linear regression analysis using the Prism software package (GraphPad Prism version 3.0cx for Macintosh, GraphPad Software, San Diego Calif., USA).

Turning to `NS(=O)(=O)c1cccc(Nc2ncc3c(n2)-c2cc(-c4ccccc4)sc2CC3)c1` [Compound I-1], on Itk [1], the IC50 was less than 1 µM.

As for `COc1cccc(-c2cc3c(s2)CCc2cnc(Nc4cccc(S(N)(=O)=O)c4)nc2-3)c1` [Compound I-2], the IC50 at Itk [1] is less than 1 µM.

Take `NS(=O)(=O)c1cccc(Nc2ncc3c(n2)-c2cc(-c4cccnc4)sc2CC3)c1` [Compound I-3]: the IC50 at Itk [1] is less than 1 µM.

`NS(=O)(=O)c1cccc(Nc2ncc3c(n2)-c2cc(-c4cccc(C(=O)O)c4)sc2CC3)c1` [Compound I-4]: the IC50 at Itk [1] is less than 1 µM.

For `NS(=O)(=O)c1cccc(Nc2ncc3c(n2)-c2cc(-c4ccsc4)sc2CC3)c1` [Compound I-5], at Itk [1], the IC50 is less than 1 µM.

In the case of `CC(=O)Nc1cccc(-c2cc3c(s2)CCc2cnc(Nc4cccc(S(N)(=O)=O)c4)nc2-3)c1` [Compound I-6], on Itk [1], the IC50 was less than 1 µM.

On to `NS(=O)(=O)c1cccc(Nc2ncc3c(n2)-c2cc(-c4ccccc4Cl)sc2CC3)c1` [Compound I-7], for which, on Itk [1], the IC50 was less than 1 µM.

For `NS(=O)(=O)c1cccc(Nc2ncc3c(n2)-c2cc(-c4cccs4)sc2CC3)c1` [Compound I-8], the IC50 at Itk [1] was less than 1 µM.

Take `COc1ccccc1-c1cc2c(s1)CCc1cnc(Nc3cccc(S(N)(=O)=O)c3)nc1-2` [Compound I-9]: the IC50 at Itk [1] was less than 1 µM.

Compound `COc1cccc(-c2cc3c(s2)CCc2cnc(Nc4cccc(NC(C)=O)c4)nc2-3)c1` [Compound I-36] registered a Ki at Itk [2] of less than 1 µM.

On Itk [2], `CC1(C)Cc2cnc(Nc3cccc(S(N)(=O)=O)c3)nc2-c2ccsc21` [Compound I-41] came in with a Ki of less than 1 µM.

With `NS(=O)(=O)c1cccc(Nc2ncc3ccc4sc(C(=O)N5CCNCC5)cc4c3n2)c1` [Compound V-4], at Itk [2], the Ki was less than 1 µM.

At Itk [2], `NS(=O)(=O)c1cccc(Nc2ncc3ccc4sc(C(=O)N5CCCCC5)cc4c3n2)c1` [Compound V-36] yielded a Ki of less than 1 µM.

In the case of `NS(=O)(=O)c1cccc(Nc2ncc3ccc4sc(C(=O)N5CCOCC5)cc4c3n2)c1` [Compound V-37], the Ki at Itk [2] was less than 1 µM.

Turning to `CC(C)(C)OC(=O)N1CCN(C(=O)c2cc3c(ccc4cnc(Nc5cccc(S(N)(=O)=O)c5)nc43)s2)CC1` [Compound V-38], the inhibition constant (Ki) on Itk [2] was less than 1 µM.

`CC(C)(C)OC(=O)NCCCNC(=O)c1cc2c(ccc3cnc(Nc4cccc(S(N)(=O)=O)c4)nc32)s1` [Compound V-39]: the Ki at Itk [2] is less than 1 µM.

As for `CN1CCN(C(=O)c2cc3c(ccc4cnc(Nc5cccc(S(N)(=O)=O)c5)nc43)s2)CC1` [Compound V-40], the Ki on Itk [2] was less than 1 µM.

`CN(CCNC(=O)c1cc2c(ccc3cnc(Nc4cccc(S(N)(=O)=O)c4)nc32)s1)C(=O)OC(C)(C)C` [Compound V-41]: on Itk [2], the Ki was less than 1 µM.

In the case of `CN(C)CCNC(=O)c1cc2c(ccc3cnc(Nc4cccc(S(N)(=O)=O)c4)nc32)s1` [Compound V-42], the Ki on Itk [2] is less than 1 µM.

At Itk [2], `CNCCNC(=O)c1cc2c(ccc3cnc(Nc4cccc(S(N)(=O)=O)c4)nc32)s1` [Compound V-43] came in with a Ki of less than 1 µM.

For `NCCCNC(=O)c1cc2c(ccc3cnc(Nc4cccc(S(N)(=O)=O)c4)nc32)s1` [Compound V-45], the Ki at Itk [2] was less than 1 µM.

`CC(C)(C)OC(=O)NC1CCN(C(=O)c2cc3c(ccc4cnc(Nc5cccc(S(N)(=O)=O)c5)nc43)s2)CC1` [Compound V-46] registered a Ki at Itk [2] of less than 1 µM.

Turning to `CC(C)(C)OC(=O)NC1CCN(C(=O)c2cc3c(ccc4cnc(Nc5cccc(S(N)(=O)=O)c5)nc43)s2)C1` (stereo not shown) [Compound V-47], on Itk [2], the Ki is less than 1 µM.

Regarding `NC1CCN(C(=O)c2cc3c(ccc4cnc(Nc5cccc(S(N)(=O)=O)c5)nc43)s2)CC1` [Compound V-48], the Ki at Itk [2] was less than 1 µM.

With `NC1CCN(C(=O)c2cc3c(ccc4cnc(Nc5cccc(S(N)(=O)=O)c5)nc43)s2)C1` (stereo not shown) [Compound V-49], the Ki at Itk [2] was less than 1 µM.

On to `CN1CCN(C(=O)c2cc3c(ccc4cnc(Nc5ccccc5)nc43)s2)CC1` [Compound V-50], for which, at Itk [2], the Ki is less than 1 µM.

Turning to `Nc1cccc(Nc2ncc3ccc4sc(C(=O)N5CCOCC5)cc4c3n2)c1` [Compound V-51], the Ki on Itk [2] is less than 1 µM.

The compound `O=C(c1cc2c(ccc3cnc(Nc4ccccc4)nc32)s1)N1CCOCC1` [Compound V-52] yielded a Ki on Itk [2] of less than 1 µM.

`NC1CCN(C(=O)c2cc3c(ccc4cnc(Nc5ccccc5)nc43)s2)C1` (stereo not shown) [Compound V-54] yielded a Ki on Itk [2] of less than 1 µM.

In turn, `NS(=O)(=O)c1cccc(Nc2ncc3ccc4nc(C(=O)N5CCNCC5)sc4c3n2)c1` [II-13] showed an inhibitory constant (Ki) on Itk [2] of less than 1 µM.

As to `Nc1cccc(Nc2ncc3ccc4sccc4c3n2)c1` [II-34], the Ki on Itk [2] was less than 1 µM.

At Itk [2], `Cc1nc2ccc3cnc(Nc4cccc(S(N)(=O)=O)c4)nc3c2s1` [II-35] had a Ki of less than 1 µM.

`CC(C)(C)C(=O)OCc1nc2ccc3cnc(Nc4cccc(S(N)(=O)=O)c4)nc3c2s1` [II-36] yielded a Ki at Itk [2] of less than 1 µM.

At Itk [2], `NS(=O)(=O)c1cccc(Nc2ncc3ccc4nc(N5CCOCC5)sc4c3n2)c1` [II-37] displayed a Ki of less than 1 µM.

`CCN(CC)c1nc2ccc3cnc(Nc4cccc(S(N)(=O)=O)c4)nc3c2s1` [II-38]: the Ki at Itk [2] is less than 1 µM.

As for `NS(=O)(=O)c1cccc(Nc2ncc3ccc4nc(N5CCCCC5)sc4c3n2)c1` [II-39], on Itk [2], the Ki is less than 1 µM.

As to `Cc1nc2c(s1)-c1nc(Nc3cccc(S(N)(=O)=O)c3)ncc1CC2` [III-4], the Ki at Itk [2] is less than 1 µM.

With `CC(C)(C)C(=O)OCc1nc2c(s1)-c1nc(Nc3cccc(S(N)(=O)=O)c3)ncc1CC2` [III-31], on Itk [2], the Ki was less than 1 µM.

In turn, `NS(=O)(=O)c1cccc(Nc2ncc3c(n2)-c2sc(N4CCOCC4)nc2CC3)c1` [III-32] returned a Ki on Itk [2] of less than 1 µM.

With `CCN(CC)c1nc2c(s1)-c1nc(Nc3cccc(S(N)(=O)=O)c3)ncc1CC2` [III-33], at Itk [2], the Ki was less than 1 µM.

On Itk [2], `NS(=O)(=O)c1cccc(Nc2ncc3c(n2)-c2sc(N4CCCCC4)nc2CC3)c1` [III-34] gave a Ki of less than 1 µM.

As to `CN1CCC(Nc2nc3c(s2)-c2nc(Nc4cccc(S(N)(=O)=O)c4)ncc2CC3)CC1` [III-35], at Itk [2], the Ki was less than 1 µM.

Consider `NS(=O)(=O)c1cccc(Nc2ncc3c(n2)-c2sc(CO)nc2CC3)c1` [III-38], for which the Ki on Itk [2] was less than 1 µM.

As for `CN1CCN(c2nc3c(s2)-c2nc(Nc4cccc(S(N)(=O)=O)c4)ncc2CC3)CC1` [III-39], the Ki on Itk [2] was less than 1 µM.

In the case of `CN(C)/C=N/S(=O)(=O)c1cccc(Nc2ncc3c(n2)-c2sc(N4CCN(C)CC4)nc2CC3)c1` [III-40], the Ki at Itk [2] is less than 1 µM.

In the case of `Cc1nc2c(s1)CCc1cnc(Nc3cccc(S(N)(=O)=O)c3)nc1-2` [IV-4], the Ki at Itk [2] was less than 1 µM.

A word on the Ki: it is the equilibrium dissociation constant of an inhibitor or competing ligand from its target.
